Measured values published in US20240366770A1, “DEGRADATION OF BRUTON'S TYROSINE KINASE (BTK) BY CONJUGATION OF BTK INHIBITORS WITH E3 LIGASE LIGAND AND METHODS OF USE” (BeiGene Switzerland GmbH, priority 2021, published 2024).

Legend:
BTK = molecular target: T1, BTK (Homo sapiens, UniProt Q06187); test: BTK degradation in TMD-8 cells (HTRF assay); type: cell-based; settings: 6 h treatment, IC50 (DC50) of BTK degradation
T1 construct: High control=Cell group with added DMSO and without compound, indicating microplate readings without BTK degradation; endogenous in cells; host or cells: TMD-8
Method in brief: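 TMD-8 cells were exposed for 6 h to 8 compound doses (6-fold serial dilution, 0.2% DMSO). Lysed cells were incubated overnight at room temperature with HTRF antibodies and read at 665/620 nm. DC50 came from four-parameter fitting of % inhibition versus concentration.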

HEK-293 cells = test: HEK-293 cytotoxicity detection (CellTiter-Glo); type: cell-based; settings: Homo sapiens; HEK-293 cells, 72 h incubation, CellTiter-Glo luminescence, IC50 of cell proliferation inhibition; read-out: HEK293
Method in brief: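 HEK-293 cells exposed 72 h to an 8-point, 4-fold dilution series (top 500× stock 5 mM in DMSO; 0.2% DMSO final). Viability by CellTiter-Glo luminescence after 10 min at room temperature; IC50 from four-parameter Hill fit of percent inhibition.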

T1 sequence (Q06187 whole entry): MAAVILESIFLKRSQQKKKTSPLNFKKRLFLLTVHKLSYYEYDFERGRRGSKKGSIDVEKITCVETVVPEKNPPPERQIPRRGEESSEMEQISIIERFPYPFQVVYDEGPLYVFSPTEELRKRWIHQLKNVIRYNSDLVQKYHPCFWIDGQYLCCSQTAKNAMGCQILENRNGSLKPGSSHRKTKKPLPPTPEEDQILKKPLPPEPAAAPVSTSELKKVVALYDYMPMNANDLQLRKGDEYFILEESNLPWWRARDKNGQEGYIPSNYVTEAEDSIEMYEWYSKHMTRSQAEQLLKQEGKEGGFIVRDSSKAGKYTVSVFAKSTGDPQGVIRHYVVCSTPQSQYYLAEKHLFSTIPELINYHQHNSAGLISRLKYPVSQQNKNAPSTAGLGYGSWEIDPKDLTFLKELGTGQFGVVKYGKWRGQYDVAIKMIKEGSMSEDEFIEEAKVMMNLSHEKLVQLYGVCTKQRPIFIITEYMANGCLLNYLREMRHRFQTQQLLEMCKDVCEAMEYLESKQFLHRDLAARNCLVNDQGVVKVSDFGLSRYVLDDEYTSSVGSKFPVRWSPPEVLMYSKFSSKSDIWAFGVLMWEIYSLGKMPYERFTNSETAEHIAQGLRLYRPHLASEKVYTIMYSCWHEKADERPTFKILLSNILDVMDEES

SMILES	DC50 (BTK) [nM]	IC50 (HEK-293 cells) [nM]
Cc1cc(-c2ncnc3[nH]c4cc(N5CCN(CC6CCN(c7ccc(N8CCC(=O)NC8=O)cc7)CC6)CC5)ccc4c23)ccc1[C@@H](C)NC(=O)c1nc(C2(C)CC2)no1 [Example 35, (R)—N-(1-(4-(7-(4-((1-(4-(2,4-dioxotetrahydropyrimidin-1(2H)-yl)phenyl)piperidin-4-yl)methyl)piperazin-1-yl)-9H-pyrimido[4,5-b]indol-4-yl)-2-methylphenyl)ethyl)-3-(1-methylcyclopropyl)-1,2,4-oxadiazole-5-carboxamide]	0.15	> 10000
COc1cc2c(cc1N1CCN(Cc3ccc4c(c3)C(C)(C)C(=O)N4C3CCC(=O)NC3=O)CC1)[nH]c1ncnc(-c3cc(C)c([C@@H](C)NC(=O)c4nc(C(C)(C)C)no4)cc3F)c12 (stereo partly drawn) [Example 83, 3-(tert-butyl)-N-((1R)-1-(4-(7-(4-((1-(2,6-dioxopiperidin-3-yl)-3,3-dimethyl-2-oxoindolin-5-yl)methyl)piperazin-1-yl)-6-methoxy-9H-pyrimido[4,5-b]indol-4-yl)-5-fluoro-2-methylphenyl)ethyl)-1,2,4-oxadiazole-5-carboxamide]	2.42	> 10000
Cc1cc(N2CCC(CN3CCN(c4ccc5c(c4)[nH]c4ncnc(-c6ccc([C@@H](C)NC(=O)c7noc(C(C)(C)C)n7)c(C)c6F)c45)CC3)CC2)ccc1N1CCC(=O)NC1=O [Example 28, (R)-5-(tert-butyl)-N-(1-(4-(7-(4-((1-(4-(2,4-dioxotetrahydropyrimidin-1(2H)-yl)-3-methylphenyl)piperidin-4-yl)methyl)piperazin-1-yl)-9H-pyrimido[4,5-b]indol-4-yl)-3-fluoro-2-methylphenyl)ethyl)-1,2,4-oxadiazole-3-carboxamide]	0.309	> 10000
Cc1cc(-c2ncnc3[nH]c4cc(N5CCN([C@H]6C[C@@H](c7ccc(N[C@@H]8CCC(=O)NC8=O)cc7)C6)CC5)ccc4c23)ccc1[C@@H](C)NC(=O)c1nc(C2(C)CC2)no1 [Example 118, N—((R)-1-(4-(7-(4-((1S,3s)-3-(4-(((R)-2,6-dioxopiperidin-3-yl)amino)phenyl)cyclobutyl)piperazin-1-yl)-9H-pyrimido[4,5-b]indol-4-yl)-2-methylphenyl)ethyl)-3-(1-methylcyclopropyl)-1,2,4-oxadiazole-5-carboxamide]	1.73	> 10000
Cc1cc(-c2ncnc3[nH]c4cc(N5CCN(C6CC(c7ccc(C8CCC(=O)NC8=O)cc7)C6)CC5)ccc4c23)ccc1[C@@H](C)NC(=O)c1nc(C(C)(C)C)no1 (stereo partly drawn) [Example 15, 3-(tert-butyl)-N-((1R)-1-(4-(7-(4-(3-(4-(2,6-dioxopiperidin-3-yl)phenyl)cyclobutyl)piperazin-1-yl)-9H-pyrimido[4,5-b]indol-4-yl)-2-methylphenyl)ethyl)-1,2,4-oxadiazole-5-carboxamide]	0.616	> 10000
Cc1cc(-c2ncnc3[nH]c4nc(C5CCN(CC6CCN(c7ccc(N8CCC(=O)NC8=O)cc7)CC6)CC5)ccc4c23)ccc1[C@@H](C)NC(=O)c1nc(C(C)(C)C)no1 [Example 39, (R)-3-(tert-butyl)-N-(1-(4-(7-(1-((1-(4-(2,4-dioxotetrahydropyrimidin-1(2H)-yl)phenyl)piperidin-4-yl)methyl)piperidin-4-yl)-9H-pyrido[3′,2′:4,5]pyrrolo[2,3-d]pyrimidin-4-yl)-2-methylphenyl)ethyl)-1,2,4-oxadiazole-5-carboxamide]	0.725	4020
Cc1cc(-c2ncnc3[nH]c4cc(CN5CCN(CC6CCN(c7ccc(N8CCC(=O)NC8=O)cc7)CC6)CC5)ccc4c23)ccc1[C@@H](C)NC(=O)c1nc(C(C)(C)C)no1 [Example 104, (R)-3-(tert-butyl)-N-(1-(4-(7-((4-((1-(4-(2,4-dioxotetrahydropyrimidin-1(2H)-yl)phenyl)piperidin-4-yl)methyl)piperazin-1-yl)methyl)-9H-pyrimido[4,5-b]indol-4-yl)-2-methylphenyl)ethyl)-1,2,4-oxadiazole-5-carboxamide]	1.16	> 10000
COc1cc2c(cc1N1CCN(CCc3ccc(C4(C)CCC(=O)NC4=O)cc3)CC1)[nH]c1ncnc(-c3ccc([C@@H](C)NC(=O)c4nc(C(C)(C)C)no4)c(C)c3)c12 (stereo partly drawn) [Example 92, 3-(tert-butyl)-N-((1R)-1-(4-(6-methoxy-7-(4-(4-(3-methyl-2,6-dioxopiperidin-3-yl)phenethyl)piperazin-1-yl)-9H-pyrimido[4,5-b]indol-4-yl)-2-methylphenyl)ethyl)-1,2,4-oxadiazole-5-carboxamide]	3.08	> 10000
COc1cc2c(cc1N1CCN(C3CC(c4ccc([C@@H]5CCC(=O)NC5=O)cc4)C3)CC1)[nH]c1ncnc(-c3ccc([C@@H](C)NC(=O)c4nc(C(C)(C)C)no4)c(C)c3F)c12 (stereo partly drawn) [Example 55, 3-(tert-butyl)-N—((R)-1-(4-(7-(4-(3-(4-((S)-2,6-dioxopiperidin-3-yl)phenyl)cyclobutyl)piperazin-1-yl)-6-methoxy-9H-pyrimido[4,5-b]indol-4-yl)-3-fluoro-2-methylphenyl)ethyl)-1,2,4-oxadiazole-5-carboxamide]	6.97	> 10000
Cc1cc(-c2ncnc3[nH]c4cc(N5CCN([C@H]6C[C@H](c7ccc(NC8CCC(=O)NC8=O)cc7)C6)CC5)ccc4c23)ccc1[C@@H](C)NC(=O)c1nc(C2(C)CC2)no1 (stereo partly drawn) [Example 116, N-((1R)-1-(4-(7-(4-((1r,3r)-3-(4-((2,6-dioxopiperidin-3-yl)amino)phenyl)cyclobutyl)piperazin-1-yl)-9H-pyrimido[4,5-b]indol-4-yl)-2-methylphenyl)ethyl)-3-(1-methylcyclopropyl)-1,2,4-oxadiazole-5-carboxamide]	0.509	> 10000
COc1cc2c(cc1N1CCN(C3CC(c4ccc([C@H]5CCC(=O)NC5=O)cc4)C3)CC1)[nH]c1ncnc(-c3ccc([C@@H](C)NC(=O)c4nc(C5(C)CC5)no4)c(C)c3F)c12 (stereo partly drawn) [Example 72, N—((R)-1-(4-(7-(4-(3-(4-((R)-2,6-dioxopiperidin-3-yl)phenyl)cyclobutyl)piperazin-1-yl)-6-methoxy-9H-pyrimido[4,5-b]indol-4-yl)-3-fluoro-2-methylphenyl)ethyl)-3-(1-methylcyclopropyl)-1,2,4-oxadiazole-5-carboxamide]	15.9	> 10000
Cc1cc(-c2ncnc3[nH]c4cc(N5CCN(CC6CCN(c7ccc(N8CCC(=O)NC8=O)cc7)CC6)CC5)c(C)cc4c23)ccc1[C@@H](C)NC(=O)c1nc(C(C)(C)C)no1 [Example 43, (R)-3-(tert-butyl)-N-(1-(4-(7-(4-((1-(4-(2,4-dioxotetrahydropyrimidin-1(2H)-yl)phenyl)piperidin-4-yl)methyl)piperazin-1-yl)-6-methyl-9H-pyrimido[4,5-b]indol-4-yl)-2-methylphenyl)ethyl)-1,2,4-oxadiazole-5-carboxamide]	1.22	> 10000
COc1cc2c(cc1N1CCN(Cc3ccc4c(c3)C3(CC3)C(=O)N4C3CCC(=O)NC3=O)CC1)[nH]c1ncnc(-c3ccc([C@@H](C)NC(=O)c4nc(C(C)(C)C)no4)c(C)c3)c12 (stereo partly drawn) [Example 76, 3-(tert-butyl)-N-((1R)-1-(4-(7-(4-((1′-(2,6-dioxopiperidin-3-yl)-2′-oxospiro[cyclopropane-1,3′-indolin]-5′-yl)methyl)piperazin-1-yl)-6-methoxy-9H-pyrimido[4,5-b]indol-4-yl)-2-methylphenyl)ethyl)-1,2,4-oxadiazole-5-carboxamide]	1.6	> 10000
Cc1c([C@@H](C)NC(=O)c2nc(C3(C)CC3)no2)ccc(-c2ncnc3[nH]c4cc(N5CCN(C6CC(c7ccc([C@H]8CCC(=O)NC8=O)cc7)C6)CC5)ccc4c23)c1F (stereo partly drawn) [Example 66, N—((R)-1-(4-(7-(4-(3-(4-((R)-2,6-dioxopiperidin-3-yl)phenyl)cyclobutyl)piperazin-1-yl)-9H-pyrimido[4,5-b]indol-4-yl)-3-fluoro-2-methylphenyl)ethyl)-3-(1-methylcyclopropyl)-1,2,4-oxadiazole-5-carboxamide]	4.1	> 10000
Cc1cc(-c2ncnc3[nH]c4cc(N5CCN(C6CC(c7ccc([C@@H]8CCC(=O)NC8=O)cc7)C6)CC5)ccc4c23)c(F)cc1[C@@H](C)NC(=O)c1nc(C(C)(C)C)no1 (stereo partly drawn) [Example 25, 3-(tert-butyl)-N—((R)-1-(4-(7-(4-(3-(4-((S)-2,6-dioxopiperidin-3-yl)phenyl)cyclobutyl)piperazin-1-yl)-9H-pyrimido[4,5-b]indol-4-yl)-5-fluoro-2-methylphenyl)ethyl)-1,2,4-oxadiazole-5-carboxamide]	0.872	> 10000
Cc1cc(-c2ncnc3[nH]c4cc(N5CCN(CC6CCN(c7ccc(N8CCC(=O)NC8=O)c(C)c7)CC6)CC5)ccc4c23)ccc1[C@@H](C)NC(=O)c1noc(C(C)(C)C)n1 [Example 22, (R)-5-(tert-butyl)-N-(1-(4-(7-(4-((1-(4-(2,4-dioxotetrahydropyrimidin-1(2H)-yl)-3-methylphenyl)piperidin-4-yl)methyl)piperazin-1-yl)-9H-pyrimido[4,5-b]indol-4-yl)-2-methylphenyl)ethyl)-1,2,4-oxadiazole-3-carboxamide]	0.211	> 10000
Cc1c([C@@H](C)NC(=O)c2noc(C(C)(C)C)n2)ccc(-c2ncnc3[nH]c4cc(N5CCN(CC6CC(c7ccc(C8CCC(=O)NC8=O)cc7)C6)CC5)ccc4c23)c1F (stereo partly drawn) [Example 30, 5-(tert-butyl)-N-((1R)-1-(4-(7-(4-((3-(4-(2,6-dioxopiperidin-3-yl)phenyl)cyclobutyl)methyl)piperazin-1-yl)-9H-pyrimido[4,5-b]indol-4-yl)-3-fluoro-2-methylphenyl)ethyl)-1,2,4-oxadiazole-3-carboxamide]	4.55	> 10000
